Laboratory results from patent publication US20250034167A1, “HETEROCYCLIC COMPOUNDS AND METHODS OF USE” (AMGEN INC., priority 2021, published 2025).

Experiments:
[1] = biological target: His-tagged KRAS G12D protein (Homo sapiens, UniProt P01116, G12D); test: biochemical
[2] = test system: Phosphorylation of ERK1/2 in AsPC-1 cells; test: Phospho-ERK1/2 MSD Assay; assay type: cell-based; settings: Homo sapiens, ASPC1, 2 h, read-out: 2 h p-ERK (AsPC-1 cells), IC50, AsPC-1 cells, 2 h compound treatment
Experimental: Sixteen hours prior to compound treatment, AsPC-1 cells were seeded in 96-well cell culture plates at a density of 25,000 cells/well and incubated at 37° C., 5% CO2. A compound dose-response titration was diluted in growth media, added to appropriate wells of a cell culture plate, and then incubated at 37° C., 5% CO2 for 2 hours.

Chain of His-tagged KRAS G12D protein (P01116 1-188 isoform P01116-2 G12D): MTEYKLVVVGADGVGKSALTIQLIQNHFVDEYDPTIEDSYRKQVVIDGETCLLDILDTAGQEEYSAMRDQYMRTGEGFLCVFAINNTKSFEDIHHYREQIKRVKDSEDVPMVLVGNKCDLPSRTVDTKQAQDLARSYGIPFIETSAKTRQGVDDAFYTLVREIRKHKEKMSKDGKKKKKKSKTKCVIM

Structure (SMILES) | IC50 [1] | IC50 [2]
CCc1c(F)ccc2cc(O)cc(-c3ncc4c(N5CCCC(F)(F)CC5)nc(OC[C@@]56CCCN5C[C@H](F)C6)nc4c3F)c12 [Example 149, 4-(4-(4,4-Difluoroazepan-1-yl)-8-fluoro-2-(((2R,7aS)-2-fluorotetrahydro-1H-pyrrolizin-7a(5H)-yl)methoxy)pyrido[4,3-d]pyrimidin-7-yl)-5-ethyl-6-fluoronaphthalen-2-ol] | 12 nM | 702 nM
CCc1c(F)ccc2cc(O)cc(-c3ncc4c(N5CCC(=O)C(F)(F)CC5)nc(OC[C@@]56CCCN5C[C@H](F)C6)nc4c3F)c12 [Example 150, 1-(7-(8-Ethyl-7-fluoro-3-hydroxy-naphthalen-1-yl)-8-fluoro-2-(((2R,7aS)-2-fluorotetrahydro-1H-pyrrolizin-7a(5H)-yl)methoxy)pyrido[4,3-d]pyrimidin-4-yl)-5,5-difluoroazepan-4-one] | 3 nM | 1430 nM
CCc1c(F)ccc2cc(O)cc(-c3ncc4c(N5CCC(=O)C(F)(F)C5)nc(OC[C@@]56CCCN5C[C@H](F)C6)nc4c3F)c12 [Example 152, 1-(7-(8-Ethyl-7-fluoro-3-hydroxy-naphthalen-1-yl)-8-fluoro-2-(((2R,7aS)-2-fluorotetrahydro-1H-pyrrolizin-7a(5H)-yl)methoxy)pyrido[4,3-d]pyrimidin-4-yl)-3,3-difluoropiperidin-4-one] | 4 nM | 2670 nM
CCc1c(F)ccc2cc(O)cc(-c3ncc4c(N5CCCCC(S(N)(=O)=O)C5)nc(OC[C@@]56CCCN5C[C@H](F)C6)nc4c3F)c12 (stereo partly drawn) [Example 158, 1-(7-(8-Ethyl-7-fluoro-3-hydroxy-naphthalen-1-yl)-8-fluoro-2-(((2R,7aS)-2-fluorotetrahydro-1H-pyrrolizin-7a(5H)-yl)methoxy)pyrido[4,3-d]pyrimidin-4-yl)azepane-3-sulfonamide] | 2 nM | 1420 nM

Next, values leading:

IC50 [1] | IC50 [2] | Structure (SMILES)
2 nM | 3080 nM | CCc1c(F)ccc2cc(O)cc(-c3ncc4c(N5CCCC(O)(C(N)=O)C5)nc(OC[C@@]56CCCN5C[C@H](F)C6)nc4c3F)c12 (stereo partly drawn) [Example 159, 1-(7-(8-Ethyl-7-fluoro-3-hydroxy-naphthalen-1-yl)-8-fluoro-2-(((2R,7aS)-2-fluorotetrahydro-1H-pyrrolizin-7a(5H)-yl)methoxy)pyrido[4,3-d]pyrimidin-4-yl)-3-hydroxypiperidine-3-carboxamide]
2 nM | 1610 nM | CCc1c(F)ccc2cc(O)cc(-c3ncc4c(N5CCC[C@@H](C(N)=O)C5)nc(OC[C@@]56CCCN5C[C@H](F)C6)nc4c3F)c12 [Example 162, (R)-1-(7-(8-Ethyl-7-fluoro-3-hydroxynaphthalen-1-yl)-8-fluoro-2-(((2R,7aS)-2-fluorotetrahydro-1H-pyrrolizin-7a(5H)-yl)methoxy)pyrido[4,3-d]pyrimidin-4-yl)piperidine-3-carboxamide]
3 nM | 94 nM | Oc1cc(-c2ncc3c(N4CCCCCC4)nc(OC[C@@]45CCCN4C[C@H](F)C5)nc3c2F)c2c(F)c(F)ccc2c1 [Example 166, 4-(4-(Azepan-1-yl)-8-fluoro-2-(((2R,7aS)-2-fluorotetrahydro-1H-pyrrolizin-7a(5H)-yl)methoxy)pyrido[4,3-d]pyrimidin-7-yl)-5,6-difluoronaphthalen-2-ol]
2 nM | 12 nM | C[C@@]1(O)CCCN(c2nc(OC[C@@]34CCCN3C[C@H](F)C4)nc3c(F)c(-c4cc(O)cc5cccc(C6CC6)c45)ncc23)C1 [Example 167, (R)-1-(7-(8-Cyclopropyl-3-hydroxynaphthalen-1-yl)-8-fluoro-2-(((2R,7aS)-2-fluorotetrahydro-1H-pyrrolizin-7a(5H)-yl)methoxy)pyrido[4,3-d]pyrimidin-4-yl)-3-methylpiperidin-3-ol]
